What all share (assay type): cell-based
Test [1] relates to latent HIV-1. The procedure:
(§1) Jurkat and J-Lat cells were cultured in RPMI (Invitrogen) with 5% FBS (Gemini Bio-Products) and 5% Fetalplex (Gemini Bio-Products). For analysis of virus reactivation by flow cytometry, aza-CdR (Sigma) and TNF-α (Biosource) treatments were for 24 h, after which medium was replaced. Reactivation was assayed after an additional 48 h. For chromatin immunoprecipitation (ChIP) and bisulfite-mediated methylcytosine mapping, cells were treated for 30 h with aza-CdR. For cycloheximide experiments, cells were treated for 24 hours, either with or without 40 ng/ml cycloheximide.
J-Lat cells were transfected by electroporation using Kit R and program O-28 (Amaxa Biosystems). HIV-1 reactivation was assayed by flow cytometry four days post-transfection. […] Supernatant was harvested 48 h post-transfection and frozen at −80° C. in aliquots. Aliquots were thawed, diluted 1:160, and used to infect Jurkat T cells overnight at a multiplicity of 0.1 infectious units per cell with 2 ml supernatant per 1 million cells. Three days post-infection, GFP-negative and -positive cell populations were isolated by fluorescence-activated cell sorting (FACS). […] Cells were cotransfected with a plasmid encoding the tomato fluorescent protein and either methylated or unmethylated pEGFP-N1, and the tomato-positive population was analyzed for GFP expression. For measurement of J-Lat activation, cells were infected with undiluted virus and analyzed by flow cytometry 2 days post-infection.
Cell fluorescence was measured with the fluorescence activated cell sorter FACSCalibur or LSRII (BD Biosciences). Cell sorting was performed with the fluorescence activated cell sorting (FACS) Vantage DiVa (BD Biosciences). To phenotype CD4^+ T cells, the cells were stained with the following monoclonal antibodies (mAbs): phycoerythrin-conjugated (PE)—anti-CD4, TC—anti-CD45RA, or PE—anti-CXCR4 (Caltag). Flow cytometry and sorting data were analyzed with FlowJo software (Treestar) or Cellquest (BD Biosciences), in the case of primary cells. Analysis was restricted to the live population, as defined by the forward versus side scatter profile. Flowjo transforms fluorescence plots to a linear scale at the origin, permitting intelligible display of cells with low fluorescence.

The subject of test [2] is latent HIV-1. Nature of the test: Latent HIV-1 reactivation in a polyclonal population of latently infected Jurkat T cells, GFP by flow cytometry. The settings on record: about two months after infection. The method, then:
as §1
J-Lat cells were transfected by electroporation using Kit R and program O-28 (Amaxa Biosystems). […] Three days post-infection, GFP-negative and -positive cell populations were isolated by fluorescence-activated cell sorting (FACS). […] Cells were cotransfected with a plasmid encoding the tomato fluorescent protein and either methylated or unmethylated pEGFP-N1, and the tomato-positive population was analyzed for GFP expression. For measurement of J-Lat activation, cells were infected with undiluted virus and analyzed by flow cytometry 2 days post-infection.
Cell fluorescence was measured with the fluorescence activated cell sorter FACSCalibur or LSRII (BD Biosciences). Cell sorting was performed with the fluorescence activated cell sorting (FACS) Vantage DiVa (BD Biosciences). […]
For orientation: In flow cytometry, cells or beads pass a laser one at a time.

The test system of another test is HIV-1 CpG islands. As to the kind of experiment: Bisulfite-mediated methylcytosine mapping of HIV-1 in J-Lat 6.3. The settings on record: depending on the CpG analyzed, 30 h treatment. The procedure:
as §1
Sodium bisulfite treatment was performed according to the Pikaard protocol (on the internet at http://followed by www(dot)biology(dot)wustl(dot)edu/pikaard/PDFs and protocol files/bisulfite sequencing(dot)pdf) with minor modifications. Jurkat T cell DNA was digested overnight with Pst I and purified with the Qiaquick PCR Purification Kit (Qiagen). Bisulfite-treated DNA was amplified in nested PCR reactions with the following reaction conditions: denature (95° C., 5 minutes), cycle 35 times (95° C., 30 seconds then 60° C., 60 seconds), and extend (60° C., 7 minutes). […] Nucleotide sequence was determined of at least nine cloned inserts using the universal M13 reverse primer. The efficiency of sodium bisulfite conversion was calculated using the Quantification Tool for Methylation Analysis (QUMA) software.

In another test the test system is HIV-1 CpG island 2. Nature of the test: Chromatin immunoprecipitation of factor recruitment to the HIV-1 provirus in J-Lat 6.3. The procedure:
as §1
ChIP was performed as described previously with modifications. J-Lat 6.3 cells Cells were diluted to 5×10^5 per ml, lysed, and sonicated (Model 500 Ultrasonic Dismembranator, Fisher Scientific). Lysates were incubated overnight with 5 μg of antibody against MBD2 (Upstate Cell Signaling Solutions cat. 07-198), HDAC2 (Santa Cruz Biotechnology cat. sc-7899) or Sp1 (Santa Cruz Biotechnology cat. sc-59). Immune complexes were recovered by incubation for 1 h with protein A agarose beads (Invitrogen). Immunoprecipitated DNA was quantified by quantitative PCR using the 7900HT Sequence Detection System (Applied Biosystems) and 2× Hot Sybr real time PCR kit (Molecular Cloning Laboratories). Negative control DNA was assayed using 5USBACT and 3USBACT as primers, CpG island 1 was assayed using oSK92 (5′-[…]-3′) (SEQ ID NO:23) and oSK93 (5′-[…]-3′) (SEQ ID NO:24) as primers, and CpG island 2 was assayed using oSK89 (5′-[…]-3′) (SEQ ID NO:25) and oSK90 (5′-[…]-3′) (SEQ ID NO:26) as primers. SDS 2.3 software (Applied Biosystems) was used to analyze precipitated DNA relative to input and to confirm the specificity of each PCR reaction by melting curve analysis.

The next test has as its system HIV-1 transcription. As to the kind of experiment: Reverse transcription and quantitative PCR of HIV-1 mRNA in J-Lat cells. The note with it: 24 hours, 40 ng/ml cycloheximide. The procedure:
as §1
J-Lat cells were transfected with short interfering RNAs (siRNAs) corresponding to the MBD2 mRNA or non-targeting control short interfering RNAs (siRNAs) (siGENOME SMARTpool or siCONTROL pool, Dharmacon) by electroporation using Kit R and program O-28 (Amaxa Biosystems). […] Quantitative PCR was performed with the 7900HT Sequence Detection System (Applied Biosystems) and the 2× Hot Sybr real time PCR kit (Molecular Cloning Laboratories), with each PCR reaction receiving 1/20 of the reverse transcription. […] SDS 2.3 software (Applied Biosystems) was used to quantify each cDNA relative to cyclophilin A and to confirm the specificity of each PCR reaction by melting curve analysis.

Like-named read-outs stand apart in the source and are kept apart here. Bounds are passed on as bounds.

Regarding `Nc1ncn([C@H]2C[C@H](O)[C@@H](CO)O2)c(=O)n1` [Aza-CdR, 5-aza-2′ deoxycytidine], the “Reactivation of latent HIV-1, MFI, fold greater than PBS control” value with latent HIV-1 [1] (J-Lat cell line 6.3) was 1.8 fold; with latent HIV-1 [1] (J-Lat cell line 8.4), 1.6 fold; in the test on latent HIV-1 [1] (J-Lat cell line 9.2), 1.1 fold; in the test with latent HIV-1 [1] (J-Lat cell line 15.4), 1 fold. In addition, in the test with latent HIV-1 [1] (J-Lat lines 6.3, 8.4, 9.2 and 15.4), the “Effect on HIV-1 gene expression (mean fluorescence intensity or proportion of GFP-positive cells)” value is “little effect”. Further, the “Proportion of cells with active virus, fold greater” value in the test with latent HIV-1 [2] is “two-fold greater proportion of cells with active virus”. The Decrease in methylation in the test on HIV-1 CpG islands is given as at most 50%. Further, the “HDAC2 recruitment to CpG island 2” value with HIV-1 CpG island 2 is listed as “lost”. In addition, the “MBD2 recruitment to CpG island 2” value with HIV-1 CpG island 2 is “eliminated”. Further, in the test with HIV-1 CpG island 2, the “Sp1 recruitment to CpG island 2” value is on record as “increased Sp1 recruitment”. Moreover, in the test on HIV-1 transcription, the “HIV-1 transcription in the presence of cycloheximide” value is given as “still induced HIV-1 transcription”.

Consider `C[C@@H]1C[C@@H]([C@H](O)CC2CC(=O)NC(=O)C2)C(=O)[C@@H](C)C1` [Cycloheximide, cycloheximide], for which the “GFP expression after treatment of J-Lat cells with TNF-α” value in the test with latent HIV-1 [1] (40 ng/ml cycloheximide) is given as “inhibition of GFP expression”.

As to TNF-a, the “Reactivation of latent virus” value in the test on latent HIV-1 [1] (J-Lat A2 (HIV-derived vector encoding only viral promoter and Tat)) is “reactivated the majority of latent virus”. The “Reactivation of latent HIV-1, MFI, fold greater than PBS control” value in the test on latent HIV-1 [1] (J-Lat cell line 6.3) was 7.1 fold; in the test on latent HIV-1 [1] (J-Lat cell line 8.4), 2.5 fold; with latent HIV-1 [1] (J-Lat cell line 9.2) it was 2.3 fold; in the test with latent HIV-1 [1] (J-Lat cell line 15.4), 1.7 fold. The “Proportion of cells with active virus, fold greater” value in the test on latent HIV-1 [2] was 1.5 fold.

The values are drawn from patent publication US9474788B2, “Methods for the reactivation of latent HIV using cytosine methylation inhibitors and NF-KB activators” (priority 2010, dated 2016).
